Assays:
[1] = Comparison of initial phases with 6 versus 10 weeks between injections; serum testosterone (total) before each additional injection (Example 4); assay type: in vivo, men; conditions: for Mean testosterone level (total) in serum after 1st injection / Mean testosterone level (total) in serum after 2nd injection: 6 men
Description: The pharmacokinetic profile of a formulation containing testosterone undecanoate (TU)1000 mg in a vehicle of 4 ml of a mixture of castor oil and benzyl benzoate in a ratio of 1:1.7 by volume was tested using two different regimens in hypogonadal men.
In regimen A, an initial phase of two first intramuscularly injections of 1000 mg TU with mean of 9.2-weeks (64.4 days) interval between the two injections, followed by a maintenance phase of subsequent intramuscularly injections of 1000 mg TU separated by an interval of a mean of 10.2 weeks ([…]) after second injection.
In regimen B, an initial phase of two first intramuscularly injections of 1000 mg TU with mean of 6.1-weeks (42.5 days) interval between the first two injections, followed by a maintenance phase of subsequent intramuscularly injections of 1000 mg TU separated by an interval of mean of 10.1 weeks (70.5 days) after second injections.
The concentration of testosterone (total) was determined in serum before each additional injection of TU.

[2] = Pharmacokinetic profile: total serum testosterone after intramuscular TU in hypogonadal men (Example 3, FIG. 1); assay type: in vivo
Description: See Example 3 for the injection scheme. […] The filled lines show the continued injection of 1000-mg TU with an interval of 12 weeks between injections.
The pharmacokinetic profile of a formulation containing testosterone undecanoate (TU) 1000 mg in a vehicle of 4 ml of a mixture of castor oil and benzyl benzoate in a ratio of 1:1.7 by volume was tested in hypogonadal men (having testosterone levels in serum of less than 10 nmol/l). An initial phase of two first intramuscularly injections of 1000 mg TU with 6-weeks interval between the two injections, followed by a maintenance phase of subsequent 3 intramuscularly injections of 1000 mg TU separated by an interval of 10 weeks between each of the injections. Then 1000 mg of testosterone undecanoate (TU) was intramuscularly injected every 12 weeks. 5 treatment periods were provided with an interval of 12 weeks between each injection.

[3] = Long-term efficacy and safety study of intramuscular TU 1000 mg in hypogonadal men (Example 2); assay type: in vivo; conditions: 4 TU doses of 1000 mg i.m. per year (12-week intervals), 4 ml castor oil:benzyl benzoate 1:1.7
Description: The therapeutic efficacy and safety of a formulation containing testosterone undecanoate 1000 mg in a vehicle of 4 ml of a mixture of castor oil and benzyl benzoate in a ratio of 1:1.7 by volume has been investigated in hypogonadal men. The formulation (4 mL, 1000 mg of testosterone undecanoate) was injected intramuscularly to the hypogonadal men according to the following scheme: • initial phase comprising 4 injections of the formulation with intervals of 6 weeks between the injections. • maintenance phase comprising injecting the formulation in intervals of 10 or 12 weeks between injections.
The present study relates to a one-arm study examining the efficacy and safety of long-term intramuscular injection of testosterone undecanoate for the treatment of symptoms of hypogonadism in men. The patients received 4 testosterone undecanoate injections of 1000 mg the first three times of injections with an interval of 6 weeks, the 4th injection and subsequent injections with 12-week intervals.

17β-hydroxyandrost-4-en-3-one undecanoate [TU]
Mean testosterone level (total) in serum after 1st injection ([1]; Regime A, mean 9.2 weeks after 1st injection of 1000 mg TU i.m.): 7.0 nmol/L | Mean testosterone level (total) in serum after 2nd injection ([1]; Regime A, mean 10.8 weeks after 2nd injection of 1000 mg TU i.m.): 8.8 nmol/L | Mean testosterone level (total) in serum after 1st injection ([1]; Regime B, mean 6.1 weeks after 1st injection of 1000 mg TU i.m.): 12.2 nmol/L | Mean testosterone level (total) in serum after 2nd injection ([1]; Regime B, mean 10.1 weeks after 2nd injection of 1000 mg TU i.m.): 12.5 nmol/L | sufficiency of testosterone levels over the entire period up to the following injection ([1]; Regimen A: long-term intervals in both initial and maintenance phase): do not result in the sufficient levels of testosterone above 10 nmol | testosterone levels over the period between injections ([1]; Regimen B: interval in the initial phase decreased to 6 weeks): above 10 nmol/l | minimum testosterone levels (total levels) after 12 weeks ([2]; 12 weeks after injection of 1000 mg TU i.m., maintenance phase): ≥ 10 nmol | minimum testosterone levels for a treatment period of 14 weeks ([2]; 14 weeks, upon extrapolating the serum levels of testosterone, lowest acceptable concentration about 10 nmol): The same was shown to apply | serum testosterone levels throughout the entire period between injections ([2]; first injection interval 6 weeks, subsequent injections at 10 or 12 week intervals): 10 to 35 nmol/L | maximal and minimal testosterone levels (total levels) in serum ([2]; hypogonadal men, 1000 mg TU i.m. in 4 ml castor oil:benzyl benzoate 1:1.7, 2 injections 6 weeks apart, then 3 at 10-week, then 12-week intervals): within the physiological acceptable range | accumulation of testosterone over time ([2]; same scheme as Example 3, 1000 mg TU i.m.): no accumulation of testosterone is seen over time | restoration of physiological serum T levels [3]: sufficient to restore physiological serum T levels in all 36 patients over most of the measurement times

Source: US7718640B2, “Methods and pharmaceutical compositions for reliable achievement of acceptable serum testosterone levels” (Bayer-Schering Pharma AG, priority 2003, dated 2010)
